Tests used:
Serine protease 1 = Serine protease 1 (Homo sapiens, UniProt P07477); experiment: In vitro inhibition of trypsin.
Prothrombin = Prothrombin (Homo sapiens, UniProt P00734); experiment: In vitro inhibition of coagulation factor IIa.
Coagulation factor X = Coagulation factor X (Homo sapiens, UniProt P00742); experiment: In vitro inhibition of coagulation factor Xa.
[1] = biological target: Tissue-type plasminogen activator (Homo sapiens, UniProt P00750); experiment: Compound was tested for its inhibitory activity against tissue plasminogen activator
Sequence of Tissue-type plasminogen activator (P00750 whole entry): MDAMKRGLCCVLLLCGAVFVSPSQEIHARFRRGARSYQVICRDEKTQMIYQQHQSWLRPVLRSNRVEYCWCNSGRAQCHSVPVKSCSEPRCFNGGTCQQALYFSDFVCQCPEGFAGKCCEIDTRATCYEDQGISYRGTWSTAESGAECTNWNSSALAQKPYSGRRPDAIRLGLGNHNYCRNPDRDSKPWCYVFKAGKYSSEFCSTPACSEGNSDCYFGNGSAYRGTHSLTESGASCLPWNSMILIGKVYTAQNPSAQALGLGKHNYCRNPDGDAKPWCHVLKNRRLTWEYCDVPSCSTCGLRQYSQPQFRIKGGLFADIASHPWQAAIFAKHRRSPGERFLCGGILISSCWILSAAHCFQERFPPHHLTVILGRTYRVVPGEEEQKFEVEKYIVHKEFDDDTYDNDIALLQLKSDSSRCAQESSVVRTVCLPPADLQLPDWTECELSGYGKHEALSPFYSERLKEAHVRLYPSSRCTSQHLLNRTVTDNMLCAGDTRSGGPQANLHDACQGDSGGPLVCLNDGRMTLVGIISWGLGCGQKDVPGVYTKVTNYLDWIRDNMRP

Plasminogen = Plasminogen (Homo sapiens, UniProt P00747); experiment: Compound was tested for its inhibitory activity against Plasmin
Sequence of Plasminogen (P00747 97-580 limits assumed): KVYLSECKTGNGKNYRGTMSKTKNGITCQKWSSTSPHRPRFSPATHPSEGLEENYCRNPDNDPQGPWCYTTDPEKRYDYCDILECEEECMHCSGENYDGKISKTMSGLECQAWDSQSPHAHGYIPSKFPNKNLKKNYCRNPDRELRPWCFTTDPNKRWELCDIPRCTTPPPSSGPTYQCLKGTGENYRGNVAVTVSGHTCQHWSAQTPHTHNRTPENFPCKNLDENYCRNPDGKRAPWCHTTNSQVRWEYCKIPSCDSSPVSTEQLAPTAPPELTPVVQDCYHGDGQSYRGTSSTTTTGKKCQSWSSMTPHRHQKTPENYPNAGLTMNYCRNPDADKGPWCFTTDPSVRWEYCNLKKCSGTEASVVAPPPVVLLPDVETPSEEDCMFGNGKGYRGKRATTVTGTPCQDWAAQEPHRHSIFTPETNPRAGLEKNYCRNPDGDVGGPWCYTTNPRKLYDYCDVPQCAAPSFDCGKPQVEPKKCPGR
Sequence of Plasminogen (P00747 581-810 limits assumed): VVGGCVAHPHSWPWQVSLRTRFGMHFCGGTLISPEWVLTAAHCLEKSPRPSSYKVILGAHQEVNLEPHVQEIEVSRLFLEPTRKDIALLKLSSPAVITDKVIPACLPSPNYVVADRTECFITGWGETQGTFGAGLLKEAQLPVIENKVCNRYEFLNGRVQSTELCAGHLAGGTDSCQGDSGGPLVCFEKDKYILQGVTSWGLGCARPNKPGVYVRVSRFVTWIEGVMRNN

[2] = biological target: Vitamin K-dependent protein C (Homo sapiens, UniProt P04070); experiment: Compound was evaluated for the inhibitory activity against Activated protein C
Sequence of Vitamin K-dependent protein C (P04070 43-197 limits assumed): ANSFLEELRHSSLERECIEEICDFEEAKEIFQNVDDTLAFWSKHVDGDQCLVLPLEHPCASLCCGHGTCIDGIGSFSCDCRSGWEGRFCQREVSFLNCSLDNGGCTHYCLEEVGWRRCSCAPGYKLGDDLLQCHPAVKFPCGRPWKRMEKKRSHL
Sequence of Vitamin K-dependent protein C (P04070 212-461 limits assumed): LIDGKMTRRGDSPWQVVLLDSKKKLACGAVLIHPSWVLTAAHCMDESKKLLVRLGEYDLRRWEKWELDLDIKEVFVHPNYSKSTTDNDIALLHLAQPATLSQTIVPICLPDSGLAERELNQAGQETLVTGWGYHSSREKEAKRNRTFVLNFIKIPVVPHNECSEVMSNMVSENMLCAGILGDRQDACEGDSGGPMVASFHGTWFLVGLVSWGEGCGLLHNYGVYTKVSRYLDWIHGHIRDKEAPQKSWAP

Oryctolagus cuniculus = species: Oryctolagus cuniculus; experiment: Ability to prolong the activated partial thromboplastin time (APTT) in plasma from rabbit
Rattus norvegicus = species: Rattus norvegicus; experiment: Ability to prolong the activated partial thromboplastin time (APTT) in plasma from rat
Canis lupus familiaris = species: Canis lupus familiaris; experiment: Ability to prolong the activated partial thromboplastin time (APTT) in plasma from dog
Homo sapiens = species: Homo sapiens; experiment: Ability to prolong the activated partial thromboplastin time (APTT) in plasma from human; type: functional, cell-free

Sequence of Serine protease 1 (P07477 whole entry): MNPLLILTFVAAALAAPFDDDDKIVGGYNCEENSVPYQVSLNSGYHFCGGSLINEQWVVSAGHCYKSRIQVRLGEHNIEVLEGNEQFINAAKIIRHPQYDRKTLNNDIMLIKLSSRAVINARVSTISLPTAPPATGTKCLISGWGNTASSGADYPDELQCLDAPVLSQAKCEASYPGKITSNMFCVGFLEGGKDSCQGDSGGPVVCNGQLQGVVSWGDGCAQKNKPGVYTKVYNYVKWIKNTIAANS
Sequence of Coagulation factor X (P00742 41-179 limits assumed): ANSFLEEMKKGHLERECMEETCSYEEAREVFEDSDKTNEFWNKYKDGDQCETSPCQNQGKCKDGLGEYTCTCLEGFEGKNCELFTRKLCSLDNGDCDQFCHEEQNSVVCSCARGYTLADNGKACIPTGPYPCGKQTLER
Sequence of Coagulation factor X (P00742 235-488 limits assumed): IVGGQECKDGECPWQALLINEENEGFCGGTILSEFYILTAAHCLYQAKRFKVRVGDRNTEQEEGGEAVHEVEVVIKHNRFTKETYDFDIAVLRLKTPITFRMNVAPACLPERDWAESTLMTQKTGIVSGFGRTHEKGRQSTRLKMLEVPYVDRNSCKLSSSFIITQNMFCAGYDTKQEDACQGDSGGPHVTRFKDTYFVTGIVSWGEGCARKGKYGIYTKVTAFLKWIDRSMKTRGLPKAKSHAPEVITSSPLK

Row | Compound | Ki (Serine protease 1) [nM] | Ki (Prothrombin) [µM] | Ki (Coagulation factor X) [nM] | other results
1 | N=C(N)c1ccc(O)c(/C=C/CNC(=O)c2cc3nnc(O)cc3s2)c1 | 1400 | > 4 | 184 | –
2 | N=C(N)c1ccc(O)c(/C=C/CNC(=O)c2ccc(-c3ccc(C(N)=O)cc3)cc2)c1 | 1400 | 2.9 | 20 | –
3 | CC(C)(C)c1ccc(C(=O)NC/C=C/c2cc(C(=N)N)ccc2O)cc1 | 2300 | 3.2 | 61 | –
4 | N=C(N)c1ccc(O)c(CCCNC(=O)c2ccc(-c3ccccn3)s2)c1 | > 2900 | > 4 | 131 | –
5 | N=C(N)c1ccc(O)c(/C=C/CNC(=O)c2ccc(-c3c[nH]cn3)cc2)c1 | 1800 | > 4 | 19 | –
6 | N=C(N)c1ccc(O)c(/C=C/CNC(=O)c2ccc(-c3ccnc(C(N)=O)c3)cc2)c1 | 2200 | > 4 | 0.75 | Concentration (Oryctolagus cuniculus): 0.51 µM; Ki [1]: 7.7 µM; Concentration (Rattus norvegicus): 1.7 µM; Ki (Plasminogen): > 7.3 µM; Concentration (Canis lupus familiaris): 0.99 µM; Ki [2]: ~18.5 µM; Concentration (Homo sapiens): 0.87 µM
7 | N=C(N)c1ccc(O)c(/C=C/CNC(=O)c2ccc(-c3ncc[nH]3)cc2)c1 | 1400 | > 4 | 128 | –
8 | N=C(N)c1ccc(O)c(CCCNC(=O)c2cc3ccc(Cl)cc3s2)c1 | > 2900 | ~4 | 181 | –
9 | N=C(N)c1ccc(O)c(/C=C/CNC(=O)c2ccc(-c3ccc(S(N)(=O)=O)cc3)cc2)c1 | 1600 | > 4 | 12 | –
10 | N=C(N)c1ccc(O)c(/C=C/CNC(=O)c2ccc(-c3ccccn3)s2)c1 | 1400 | > 4 | 37 | –

More lines, main results first:

Row | Ki (Serine protease 1) [nM] | Ki (Prothrombin) [µM] | Ki (Coagulation factor X) [nM] | Compound | other results
11 | – | – | 5 | COC(=O)[C@H](Cc1cccc(C(=N)N)c1)[C@@H](C)NC(=O)c1ccc(-c2ccccc2)cc1 | –
12 | > 2900 | > 4 | 7 | N=C(N)c1ccc(O)c(CCCNC(=O)c2ccc(-c3cccc(C(N)=O)c3)cc2)c1 | Ki [1]: > 8.7 µM; Ki (Plasminogen): 3.5 µM; Ki [2]: 15 µM
13 | 1500 | > 4 | 2 | N=C(N)c1ccc(O)c(/C=C/CNC(=O)c2ccc(-c3ccccc3S(N)(=O)=O)cc2)c1 | –
14 | 240 | > 4 | 9 | N=C(N)c1ccc(O)c(/C=C/CNC(=O)c2ccc(-c3cccc(S(N)(=O)=O)c3)cc2)c1 | –
15 | 2200 | > 4 | 59 | CC(C)(C)c1ccc(C(=O)NCCCc2cc(C(=N)N)ccc2O)cc1 | –
16 | > 2900 | > 4 | 5 | N=C(N)c1ccc(O)c(/C=C/CNC(=O)c2ccc(-c3cccc(C(N)=O)c3)cc2)c1 | –
17 | ~2900 | > 4 | 58 | N=C(N)c1ccc(O)c(CCCNC(=O)c2ccc(-c3ncc[nH]3)cc2)c1 | –
18 | > 2900 | > 4 | 51 | N=C(N)c1ccc(O)c(/C=C/CNC(=O)c2ccc(-c3ccccc3)cc2)c1 | –
19 | – | – | 1000 | N=C(N)c1cccc(CCCNC(=O)c2ccc(-c3ccccc3)cc2)c1 | –
20 | ~2900 | > 4 | 254 | N=C(N)c1ccc(O)c(CCCNC(=O)c2ccc(-c3c[nH]cn3)cc2)c1 | –
21 | 1900 | > 4 | 38 | N=C(N)c1ccc(O)c(CCCNC(=O)c2ccc(-c3cccnc3)cc2)c1 | –
22 | – | – | 0.5 | COC(=O)[C@H](Cc1cccc(C(=N)N)c1)[C@@H](C)NC(=O)c1ccc(-c2cccc(C(N)=O)c2)cc1 | Ki [1]: > 8.7 µM; Ki (Plasminogen): 0.14 µM; Ki [2]: > 18.5 µM
23 | > 2900 | > 4 | 88 | N=C(N)c1ccc(O)c(CCCNC(=O)c2ccc(-c3ccccc3)cc2)c1 | –
